Measured values reported in patent publication US20260130404A1, “SWEETNESS AND TASTE IMPROVEMENT OF NON-SUCROSE SWEETENERS WITH D-SUGARS OR L-SUGARS” (The Coca-Cola Company, priority 2022, published 2026).
Where two headings read alike, the source gives them in different places.

Legend:
human sense of taste [1] = conditions: cited from earlier work
panelists [2] = test: Sensory panel paired comparison of lemon-lime beverages with Reb M; assay type: in vivo; conditions: 1% in a lemon-lime matrix containing 475 ppm rebaudioside M
Procedure: (§1) The ingredients were dissolved in filtered water to constitute a syrup, then the final beverage was made by weighing the appropriate syrup amount and adding carbonated water using a ratio of 1-part syrup+5.4 parts carbonated water to target a carbonation of 3.8 volumes of CO2. Final beverages were filled in 300 ml glass bottles and served cold (4° C.). A sensory panel was provided with the D-glucose (@1%) containing beverage of Table 1 and the control shown therein. The beverages were evaluated blindly by six or seven panelists. Samples were coded and randomly presented to the panelists. Panelists were instructed to eat an unsalted cracker and rinse the mouth with water before and in between the samples. For each sample, panelists were instructed to taste, then write down their evaluation comments in paired comparison test between control and prototypes. Panelists ranked higher the sample that had higher sweet intensity, fast sweet onset, more sugar like mouthfeel, less sweet linger, less bitter and overall best tasting. […] Samples were coded and randomly presented to the panelists. Panelists were instructed to eat an unsalted cracker and rinse the mouth with water before and in between the samples. […]

human sense of taste [3] = conditions: cited from earlier work; remark: listed apart in the source
panelists [4] = test: Sensory panel paired comparison of lemon-lime beverages with Siamenoside I; assay type: in vivo; conditions: 2% in a lemon-lime matrix containing 600 ppm Siamenoside I
Procedure: as §1, with “Table 4” for “Table 1”

taste panelists = conditions: background statement; cited from earlier work
[5] = lowest known concentration perceivable as sweet, ppm equivalent of the mM value
[6] = lowest known concentration perceivable by the human sense of taste as sweet

SMILES	detection threshold concentration (human sense of taste [1]; lowest known concentration perceivable by the human sense of taste)	detection threshold concentration (human sense of taste [1]; lowest known concentration perceivable, ppm equivalent of the mM value)	taste modulation (sensory testing, FIG. 1 and 2) (panelists [2])	sweetness recognition threshold concentration (human sense of taste [3]; [5])	sweetness recognition threshold concentration (human sense of taste [3]; [6])	taste modulation (sensory testing, FIG. 3 and 4) (panelists [4])	maximal sucrose equivalence (taste panelists)
O=C[C@H](O)[C@@H](O)[C@H](O)[C@H](O)CO [D-glucose]	about 13 mM	about 2342 ppm	effective taste modulator	about 7386 ppm	about 41±6 mM	effective taste modulator	
O=C[C@@H](O)[C@H](O)[C@@H](O)[C@@H](O)CO [L-glucose]			effective taste modulator	about 5765 ppm	about 32±7 mM	effective taste modulator	
C=C1C[C@@]23CC[C@H]4[C@@](C)(CCC[C@@]4(C)C(=O)O[C@@H]4O[C@H](CO)[C@@H](O)[C@H](O)[C@H]4O)[C@@H]2CC[C@]1(O[C@@H]1O[C@H](CO)[C@@H](O)[C@H](O[C@@H]2O[C@H](CO)[C@@H](O)[C@H](O)[C@H]2O)[C@H]1O[C@@H]1O[C@H](CO)[C@@H](O)[C@H](O)[C@H]1O)C3 [rebaudioside A]							≤ 10%
C=C1C[C@@]23CC[C@H]4[C@@](C)(CCC[C@@]4(C)C(=O)O[C@@H]4O[C@H](CO)[C@@H](O)[C@H](O[C@@H]5O[C@H](CO)[C@@H](O)[C@H](O)[C@H]5O)[C@H]4O[C@@H]4O[C@H](CO)[C@@H](O)[C@H](O)[C@H]4O)[C@@H]2CC[C@]1(O[C@@H]1O[C@H](CO)[C@@H](O)[C@H](O[C@@H]2O[C@H](CO)[C@@H](O)[C@H](O)[C@H]2O)[C@H]1O[C@@H]1O[C@H](CO)[C@@H](O)[C@H](O)[C@H]1O)C3 [rebaudioside M]							greater than 10%
